Data on 23 molecules can be found in US4769377A, “Adenosine receptor antagonists” (priority 1986, dated 1988).

Data set [1] concerns the target T1, adenosine A1 receptors (Bos taurus, UniProt P28190).
T1 sequence (P28190 1-326): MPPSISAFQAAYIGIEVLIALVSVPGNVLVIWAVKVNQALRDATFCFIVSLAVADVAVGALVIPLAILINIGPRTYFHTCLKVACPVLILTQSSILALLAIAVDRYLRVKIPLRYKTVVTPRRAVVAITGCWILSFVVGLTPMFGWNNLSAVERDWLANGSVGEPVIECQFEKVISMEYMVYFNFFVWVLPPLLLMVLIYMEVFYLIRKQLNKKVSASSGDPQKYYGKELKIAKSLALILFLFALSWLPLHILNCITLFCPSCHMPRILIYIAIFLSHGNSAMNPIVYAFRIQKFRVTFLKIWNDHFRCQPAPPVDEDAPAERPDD
In words: biochemical.
Description: (§1) Incubation was terminated and samples were collected on GF/B filters under vacuum, washed three times, and counted in a liquid scintillation counter. Dose-inhibition curves were generated with four to eight concentrations of the test compound in triplicate incubations.

In data set [2] the target is T1, adenosine A1 receptors. Description: inhibition of [^3 H]CHA binding to A1 adenosine receptors in bovine brain membranes.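 Also: Filter-bound radioactivity read by liquid scintillation counting, with dose-inhibition curves built from 4–8 test concentrations, each run in triplicate.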
Description: as §1
The nature of data set [3]: Solubility of 8-phenylxanthines. The class given is physicochemical.
The target in a further data set is T2, A1 receptor in rat brain (Rattus norvegicus, UniProt P25099).
T2 construct: from tissue; host or cells: rat brain
T2 sequence (P25099 1-326): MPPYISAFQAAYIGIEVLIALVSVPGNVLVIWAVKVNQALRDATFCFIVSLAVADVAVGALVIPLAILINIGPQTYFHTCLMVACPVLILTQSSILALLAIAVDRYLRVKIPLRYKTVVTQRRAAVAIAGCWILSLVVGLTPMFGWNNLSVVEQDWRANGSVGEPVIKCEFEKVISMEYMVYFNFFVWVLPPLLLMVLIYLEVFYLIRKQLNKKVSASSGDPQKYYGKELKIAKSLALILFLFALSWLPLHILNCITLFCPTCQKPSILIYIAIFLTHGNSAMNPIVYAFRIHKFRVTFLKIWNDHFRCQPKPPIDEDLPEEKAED
Description: A1 receptor affinity in rat brain. The class given is binding.

Another data set can be described thus: hydrophobicity. The class given is physicochemical.
In data set [4] the target is T1, adenosine A1 receptors.
Description: as §1
Setting [5] is: Table II, vs [^3 H-CHA] in bovine brain.
[6] abbreviates: Table I, vs [^3 H]-cyclohexyladenosine, bovine brain.

≈ marks a conversion by molar mass, not a printed value. Entries after “also recorded” stand apart in the source; their conditions may differ. Where two headings read alike, the source gives them in different places.

Consider `CCn1c(=O)c2[nH]c(-c3ccc(Cl)cc3N)nc2n(CC)c1=O` [1,3-diethyl-8-(2-amino-4-chlorophenyl)X, 1,3-diethyl-8-(2-amino-4-chlorophenyl)xanthine], for which, on adenosine A1 receptors [1], the Ki came out at 0.32 nM. At adenosine A1 receptors [2] (setting [5]), this molecule showed a concentration for half-maximal inhibition (IC50) of 0.8 nM.
On to `CCn1c(=O)c2[nH]c(-c3ccccc3)nc2n(CC)c1=O` [1,3-diethyl-8-phenylX, 1,3-diethyl-8-phenylxanthine], for which, in data set [3] (water, read-out: soluble in water at), the solubility was 3 µM (≈ 0.853 µg/mL).
On adenosine A1 receptors [1], `Cn1c(=O)c2[nH]c(-c3ccc([N+](=O)[O-])cc3N)nc2n(C)c1=O` [8-(2-amino-4-nitrophenyl)T] had a Ki of 1.2 nM. At adenosine A1 receptors [2] (setting [5]), this molecule registered an IC50 of 2.5 nM.
The molecule `Cn1c(=O)c2[nH]c(Cc3ccccc3)nc2n(C)c1=O` [8-benzylT] returned an IC50 at adenosine A1 receptors [2] of 1500 nM.
Regarding `Cn1c(=O)c2nc(C3CCCCC3)[nH]c2n(C)c1=O` [8-cyclohexylT], on adenosine A1 receptors [2], the IC50 amounted to 3 nM.
Consider `Cn1c(=O)c2[nH]c(C3CCCC3)nc2n(C)c1=O` [8-cyclopentylT], for which, on adenosine A1 receptors [2], the IC50 was 2 nM.
The molecule `Cn1c(=O)c2[nH]c(CC3CCCC3)nc2n(C)c1=O` [8-cyclopentylmethylT] registered an IC50 on adenosine A1 receptors [2] of 30 nM.
On adenosine A1 receptors [2] (setting [5]), `Cn1c(=O)c2[nH]c(-[c-]3cccc3)nc2n(C)c1=O.[Fe+2].c1cc[cH-]c1` [8-ferrocenylT] gave an IC50 of 20 nM.
Regarding `Cn1c(=O)c2[nH]c([N+](=O)[O-])nc2n(C)c1=O` [8-nitroT], on adenosine A1 receptors [2] (setting [5]), the IC50 amounted to 3500 nM.
`Cn1cnc2c(N)ncnc21` [9-methyladenine]: the IC50 at adenosine A1 receptors [2] stood at 35000 nM.
At adenosine A1 receptors [2] (setting [6]), `Cn1c(=O)c2[nH]c(-c3ccc(Cl)cc3)nc2n(C)c1=O` [B70, 8-(p-chlorophenyl)theophylline] registered an IC50 of 0.8 nM.
With `CCCn1c(=O)c2nc[nH]c2n(CCC)c1=O` [B80, 1,3-dipropylxanthine], on adenosine A1 receptors [2], the IC50 came out at 200 nM and the Ki stood at 100 nM.
For `Cn1c(=O)c2nc(-c3ccccc3N)[nH]c2n(C)c1=O` [B87, 8-(o-aminophenyl)theophylline] the same measures were 5 nM and 2.3 nM.
At adenosine A1 receptors [2], `Cn1c(=O)c2[nH]c(-c3ccc(N)cc3)nc2n(C)c1=O` [B211, 8-(p-aminophenyl)theophylline] registered an IC50 of 1.7 nM and a Ki of 0.69 nM.
With `Cn1c(=O)c2[nH]c(-c3ccc(N)cc3N)nc2n(C)c1=O` [B232, 8-(2,4-diaminophenyl)theophylline], on adenosine A1 receptors [1], the Ki is 5.9 nM. The same molecule showed an IC50 on adenosine A1 receptors [2] (setting [6]) of 8 nM.
On to `Cn1c(=O)c2[nH]c(-c3ccc(Cl)cc3N)nc2n(C)c1=O` [B246, 8-(2-Amino-4-Chlorophenyl) Theophylline], for which the Ki on adenosine A1 receptors [1] amounted to 0.2 nM. In addition, at adenosine A1 receptors [2], the IC50 was 0.15 nM. For the same molecule, the “adenosine receptor blocking activity (in words)” value at adenosine A1 receptors [2] (bovine brain) is given as “significantly lower”.
Regarding `CCCn1c(=O)c2[nH]c(-c3ccccc3)nc2n(CCC)c1=O` [B255, 1,3-Dipropyl-8-Phenylxanthine], at adenosine A1 receptors [2], the IC50 was 0.3 nM and the Ki was 0.12 nM. Moreover, on adenosine A1 receptors [2] (bovine brain), the “adenosine receptor blocking activity (in words)” value was “significantly lower” and the “times more potent than theophylline” value is recorded as “about 10,000 times”.
For the molecule `CCCn1c(=O)c2[nH]c(-c3ccc(Cl)cc3N)nc2n(CCC)c1=O` [B256, 1,3-dipropyl-8-(2-amino-4-chlorophenyl)xanthine], on A1 receptor in rat brain, the affinity, expressed as Ki, was 5 nM; the “more potent than 8-phenyltheophylline using rat brain” value is on record as “about 30 fold”; the “more potent than theophylline using rat brain” value is around 2000 fold. Also, the solubility in data set [3] (dmf, organic solvent or mixture, read-out: soluble in DMF at) worked out at 30000 µM (≈ 10900 µg/mL). Moreover, in data set [3] (ethanol, organic solvent or mixture, read-out: soluble in ethanol at), the solubility was determined as 1000 µM (≈ 362 µg/mL). For the same molecule, the solubility in data set [3] (hot 0.1n koh, read-out: soluble in hot 0.1N KOH at) was found to be 1000 µM (≈ 362 µg/mL). Further, in data set [3] (water), the “water solubility (in words)” value is given as “very water-insoluble”. For the same molecule, the “hydrophobicity (in words)” value in the data set “hydrophobicity” is given as “hydrophobic”. This molecule registered a Ki on adenosine A1 receptors [4] of 0.022 nM. The same molecule returned an IC50 at adenosine A1 receptors [2] (setting [6]) of 0.05 nM. Besides, on adenosine A1 receptors [2] (bovine brain), the “activity relative to most active prior art compound (B70)” value is reported as around 16 times, the “adenosine receptor blocking activity (in words)” value was “significantly lower; also recorded: extremely potent; also recorded: particularly outstanding activity” and the “times more potent than xanthine” value is recorded as “approximately 4,000,000 times”. The Ki at adenosine A1 receptors [2] (read-out: Ki for adenosine A1 receptors, bovine brain) turned out to be 0.022 nM.
Regarding `CCCn1c(=O)c2nc(-c3ccc(N)cc3N)[nH]c2n(CCC)c1=O` [B262, 1,3-Dipropyl-8-(2,4-Diaminophenyl) Xanthine], on adenosine A1 receptors [1], the Ki was determined as 0.14 nM. In addition, in data set [3] (water), the “water solubility (in words)” value was “much greater water solubility”. This molecule had an IC50 at adenosine A1 receptors [2] of 0.2 nM. Moreover, at adenosine A1 receptors [2] (bovine brain), the “activity relative to most active prior art compound (B70)” value was “four-fold greater” and the “adenosine receptor blocking activity (in words)” value is reported as “substantially less active than B256; also recorded: particularly outstanding activity”. Further, the “adenosine receptor blocking activity (in words)” value on adenosine A1 receptors [2] (bovine brain, listed as 262) was “significantly lower”.
At adenosine A1 receptors [2], `Nc1ncnc2nc[nH]c12` [adenine] returned an IC50 of 800000 nM.
Turning to `O=c1nc2[nH]c3ccccc3nc-2c(=O)[nH]1` [alloxazine], the IC50 on adenosine A1 receptors [2] came out at 1500 nM.
On adenosine A1 receptors [2], `Cn1c(=O)c2c(ncn2C)n(C)c1=O` [caffeine] registered an IC50 of 20000 nM and an inhibition constant (Ki) of 11000 nM.
At adenosine A1 receptors [2], `O=c1[nH]c(=O)c2[nH]cnc2[nH]1` [xanthine] had an IC50 of 200000 nM and a Ki of 99000 nM.

As a reminder, the Ki is a measure of affinity in units of concentration, obtained from inhibition or displacement. As a reminder, the IC50 is the concentration that gives 50% inhibition. Low readings indicate greater potency, high ones weaker potency.
